According to patent US20160338977A1, “METHODS AND KITS FOR TREATING DEPRESSION” (Janssen Pharmaceutica NV, priority 2015, published 2016):

Columns and labels:
[1] = system: NMDA receptor; settings: compared with the R-enantiomer (arketamine); cited from earlier work
[2] = system: subjects with Treatment Resistant Depression (TRD); test: MADRS total score, double-blind placebo-controlled intranasal induction study; format: in vivo, human; settings: for Mean Differences (SE) from placebo, MADRS total score: Day 8, data from both Periods 1 and 2; for Estimated Differences from placebo, MADRS total score: best fit sigmoidal Emax model; for Least Square Mean Difference from Placebo, MADRS total score: change from baseline to Day 8, ANCOVA LOCF
Excerpt: The subjects discussed in Examples 1 to 5 included adult men and women, 18 (or older if the minimum legal age of consent in the country in which the study is taking place is >18) to 64 years of age (inclusive), who meet diagnostic criteria for recurrent MDD or single-episode MDD, based upon clinical assessment.
This example was a 2-panel, doubly-randomized, double-blind, placebo-controlled, multicenter study. In both panels, each subject participated in a screening phase of up to 4 weeks and/or a double-blind treatment phase which includes two 1-week periods (Period 1 and Period 2).
Sixty-seven (67) subjects with Treatment Resistant Depression (TRD) were randomly assigned in a 3:1:1:1 ratio to 1 of the 4 treatment groups in Table 1.
All subjects self-administered the intranasal esketamine (28, 56, or 84 mg) or placebo on non-consecutive days. Each intranasal device contains 2 sprays and contain esketamine deliver 14 mg per spray, for a total of 28 mg per individual device (i.e., 2 sprays). […] Food was restricted for 8 hours before each administration of study drug and the drinking of fluids was restricted for at least 30 minutes before the first nasal spray.
In Period 2, 28 placebo subjects who were eligible for re-randomization at the end of Period 1 were randomly assigned to as noted in Table 1 in a 1:1:1:1 ratio. Subjects eligible for re-randomization had to have a QIDS-SR16 total score >11 at the end of Period 1. Central randomization was implemented in this study. Both randomizations were balanced using randomly permuted blocks and were stratified by study center. The randomization for Period 2 was also stratified by QIDS-SR16 score at the end of Period 1 (moderate=11-16; severe >16) Subjects who were randomly assigned to esketamine in Period 1 continued to receive esketamine in Period 2, while Period 1 placebo subjects with a QIDS-SR16 total score <11 continued with placebo in Period 2.
The Period 1 ITT analysis set consisted of all randomized subjects who received at least 1 dose of study medication during Period 1 and had both the baseline and at least one post baseline value for the primary endpoint measure, MADRS total score, within Period 1. The Period 2 ITT analysis set consisted of all Period 1 placebo subjects who were eligible for re-randomization (QIDS-SR16≧11 at end of Period 1), who actually got re-randomized into Period 2 and received at least 1 dose of study medication during Period 2, and had both the baseline and at least one post baseline MADRS total score within Period 2.
The MADRS consisted of 10 items that covered all of the core depressive symptoms (apparent sadness, reported sadness, inner tension, sleep, appetite, concentration, lassitude, interest level, pessimistic thoughts, and suicidal thoughts). Each item was scored from 0 (item is not present or is normal) to 6 (severe or continuous presence of the symptom). A total score (0 to 60) was calculated by summing the scores of all 10 items. A higher score represented a more severe condition. Sustained response (onset of clinical response) was defined as at least 50% improvement from baseline in the MADRS total score with an onset by Day 2 that was maintained to study Day 15. The primary efficacy endpoint was the change in MADRS total score from baseline to Day 8 in each period, with the analysis based on data combined across both periods. The primary efficacy analysis was performed on the intent-to-treat (ITT) analysis sets that were defined for each period, which included all randomized subjects who received at least 1 dose of study medication during that period and have both the baseline and at least one post baseline MADRS total score within that period. Significance was based on a one-sided alpha level of 0.05.
A separate ANCOVA model was performed on last observation carried forward (LOCF) data for each period. Changes from baseline in Period 1 were modeled with treatment as a factor and Period 1 baseline value as a covariate. […]

[3] = system: subjects with Treatment Resistant Depression (TRD); test: Clinician Administered Dissociative States Scale (CADSS); format: in vivo, human; settings: post dose; intranasal
Experimental: The Clinician Administered Dissociative States Scale (CADSS) was measured prior to the start of each dose, at 40 minutes and at 2 hours post dose. The CADSS is used to assess treatment emergent dissociative symptoms and perceptual changes and the total score ranges from 0 to 92 with a higher score representing a more severe condition. […] See, FIG. 4.

[4] = system: subjects with Treatment Resistant Depression (TRD); test: Treatment emergent adverse events (TEAE) in the subjects of Example 1
Excerpt: The treatment emergent adverse event (TEAE) side effects for the subjects of Example were obtained. See, Table 7.

## CN[C@]1(c2ccccc2Cl)CCCCC1=O.Cl [Esketamine, (S)-2-(2-chlorophenyl)-2-(methylamino)cyclohexanone hydrochloride]
[1]
  potency or affinity for the NMDA receptor: higher potency or affinity
[2]; 14 mg (model estimate, dose not studied), 90% CI included 0
  statistical comparison with placebo, dose response model, MADRS total score: not statistically different from placebo
[2]; 28 mg
  Mean Differences (SE) from placebo, MADRS total score: −4.2 (2.09)
  Estimated Differences from placebo, MADRS total score: −4.22
[2]; 28 mg, sigmoidal Emax model, 90% CI
  statistical comparison with placebo, dose response model, MADRS total score: statistically superior to placebo
[2]; 56 mg
  Mean Differences (SE) from placebo, MADRS total score: −6.3 (2.07)
  Estimated Differences from placebo, MADRS total score: −7.04
[2]; 56 mg, sigmoidal Emax model, 90% CI
  statistical comparison with placebo, dose response model, MADRS total score: statistically superior to placebo
[2]; 84 mg
  Mean Differences (SE) from placebo, MADRS total score: −9.0 (2.13)
  Estimated Differences from placebo, MADRS total score: −8.45
[2]; 84 mg, sigmoidal Emax model, 90% CI
  statistical comparison with placebo, dose response model, MADRS total score: statistically superior to placebo
[2]; Period 1, 28 mg intranasal
  Least Square Mean Difference from Placebo, MADRS total score: −5.0
[2]; Period 1, 56 mg intranasal
  Least Square Mean Difference from Placebo, MADRS total score: −7.6
[2]; Period 1, 84 mg intranasal
  Least Square Mean Difference from Placebo, MADRS total score: −10.5
[2]; Period 2, 28 mg intranasal
  Least Square Mean Difference from Placebo, MADRS total score: −3.1
[2]; Period 2, 56 mg intranasal
  Least Square Mean Difference from Placebo, MADRS total score: −4.4
[2]; Period 2, 84 mg intranasal
  Least Square Mean Difference from Placebo, MADRS total score: −6.9
[2]; all three groups (28, 56, 84 mg), Period 1 and Period 2 combined, weighted combination test, one-sided 0.05
  statistical comparison with placebo, MADRS total score: statistically superior to placebo
[2]; dose cell blank (14 mg per text, dose not studied)
  Estimated Differences from placebo, MADRS total score: −1.98
[3]
  time of peak of dissociative and perceptual change symptoms (CADSS): ≤ 40 min
  time to resolution of dissociative and perceptual change symptoms (CADSS): ≤ 2 h
[4]; Period 1, 28 mg intranasal
  Patients Experiencing on TEAE: 73
[4]; Period 1, 56 mg intranasal
  Patients Experiencing on TEAE: 82
[4]; Period 1, 84 mg intranasal
  Patients Experiencing on TEAE: 83
[4]; Period 2, 28 mg intranasal
  Patients Experiencing on TEAE: 38
[4]; Period 2, 56 mg intranasal
  Patients Experiencing on TEAE: 78
[4]; Period 2, 84 mg intranasal
  Patients Experiencing on TEAE: 100
[4]; overall, esketamine in either Period 1 or Period 2
  subjects who experienced at least one TEAE: about 79%
